Measurements taken from article PMC13429874, “ABHD2 activity is not required for the non-genomic action of progesterone on human sperm” (Human Reproduction (Oxford, England), 2026).
Entries after “also recorded” stand apart in the source; their conditions may differ.

Columns and labels:
ABHD2^L33–E425 [1] = biological target: T1, ABHD2^L33–E425 (Homo sapiens, UniProt P08910); assay: ABHD2^L33-E425 fluorometric enzymatic activity assay with 7-HCA substrate; assay type: biochemical; conditions: 10 nM enzyme, 10 µM 7-HCA; read-out: IC50 for ABHD2^L33-425, fluorometric assay using 7-HCA
T1 construct: expression for ABHD2 amino acids L33–E425, in which a predicted transmembrane domain (amino acids 1–32) is removed; His6-FLAG (N); made in house; host or cells: E. coli BL21(DE3)-R3-pRARE2
T1 sequence (P08910 33-425): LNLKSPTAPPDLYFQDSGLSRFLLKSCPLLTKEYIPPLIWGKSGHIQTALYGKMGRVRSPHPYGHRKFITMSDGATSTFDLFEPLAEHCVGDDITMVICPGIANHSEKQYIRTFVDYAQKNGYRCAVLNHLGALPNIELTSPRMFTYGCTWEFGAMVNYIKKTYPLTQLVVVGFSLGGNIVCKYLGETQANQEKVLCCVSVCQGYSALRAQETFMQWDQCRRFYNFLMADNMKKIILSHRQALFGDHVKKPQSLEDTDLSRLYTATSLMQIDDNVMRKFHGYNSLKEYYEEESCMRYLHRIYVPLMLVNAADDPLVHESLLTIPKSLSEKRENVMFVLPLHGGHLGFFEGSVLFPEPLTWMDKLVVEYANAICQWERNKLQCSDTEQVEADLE

ABHD2^L33–E425 [2] = biological target: T1, ABHD2^L33–E425; assay: Differential scanning fluorimetry (DSF) with purified ABHD2^L33–E425; assay type: binding
human ABHD10 = biological target: T2, human ABHD10 (Homo sapiens, UniProt Q9NUJ1); assay: ABHD10 colorimetric assay with p-nitrophenyl butyrate; assay type: biochemical; conditions: 10 µM compound, 500 µM p-NPB
T2 construct: Constructs encoding amino acids T53—N306 of human ABHD10; His6-TEV site (N); made in house; host or cells: E. coli
T2 sequence (Q9NUJ1 53-306): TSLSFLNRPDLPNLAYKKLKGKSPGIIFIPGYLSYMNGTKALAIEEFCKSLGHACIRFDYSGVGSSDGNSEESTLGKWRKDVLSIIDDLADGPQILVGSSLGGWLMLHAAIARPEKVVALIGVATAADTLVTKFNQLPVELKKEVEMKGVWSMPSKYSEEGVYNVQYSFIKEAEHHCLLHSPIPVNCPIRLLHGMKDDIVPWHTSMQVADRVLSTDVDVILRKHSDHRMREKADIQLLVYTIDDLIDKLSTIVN
Experimental: (§1) Enzymatic activities of ABHD10 and ABHD11 were measured in a colorimetric assay using p-nitrophenyl butyrate (p-NPB) as substrate. Enzymes at 1500 nM ABHD10 and 125 nM ABHD11 in 20 mM HEPES pH 7.5, 150 mM NaCl, and 2% (v/v) DMSO were pre-incubated in 96-well plates with 50 µM test compound for 30 min at 4°C. Plates were then equilibrated at 37°C for 2 min, and reactions were initiated by adding 160 µl of pre-warmed substrate solution (same buffer with 625 µM p-NPB) to a total volume of 200 µl, yielding final assay concentrations of 300 nM ABHD10, 25 nM ABHD11, and 500 µM pNPB. The substrate solution was prepared immediately before addition to the enzyme mixtures. Absorbance at 405 nm was recorded on a SpectraMax iD3 plate reader (Molecular Devices) for 20 min with continuous monitoring at 30 s intervals.

human ABHD11 = biological target: T3, human ABHD11 (Homo sapiens, UniProt Q8NFV4); assay: ABHD11 colorimetric assay with p-nitrophenyl butyrate; assay type: biochemical; conditions: 10 µM compound, 500 µM p-NPB
T3 construct: residues V34—V315 of human ABHD11; His6-TEV site (N); made in house; host or cells: E. coli
T3 sequence (Q8NFV4 25-306 limits assumed): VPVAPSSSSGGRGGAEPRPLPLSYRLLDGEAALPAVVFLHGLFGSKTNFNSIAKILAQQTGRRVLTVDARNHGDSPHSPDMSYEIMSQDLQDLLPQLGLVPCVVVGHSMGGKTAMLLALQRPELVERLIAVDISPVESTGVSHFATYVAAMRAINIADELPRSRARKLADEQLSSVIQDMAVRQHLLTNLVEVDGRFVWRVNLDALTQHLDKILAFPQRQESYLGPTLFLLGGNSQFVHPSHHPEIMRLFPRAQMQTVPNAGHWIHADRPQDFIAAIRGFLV
Experimental: as §1

human sperm = assay: Sperm hyperactivation assay (CASA); assay type: cell-based; conditions: 10 µM compound, 30 min
Experimental: Sperm hyperactivation was assessed in human sperm purified by density gradient centrifugation. Semen samples (n = 7) were allowed to liquefy for 15–30 min at 37°C, and up to 2 ml of liquified semen was layered onto a two-step GM501 gradient system (45%/90%; Gynemed; Sierksdorf, Germany) pre-equilibrated at 37°C. Gradients were centrifuged for 20 min at 400 × g (no break). The 90% pellet was collected, washed in SpermActive medium (Gynemed; composition per manufacturer: NaCl, KCl, MgSO4.7H2O, KH2PO4, 1.77 mM CaCl2.2H2O, D(+)-glucose anhydrous, sodium pyruvate, sodium lactate, EDTA, alanyl-glutamine, essential and non-essential amino acids, 25.71 mM NaHCO3, 15 mM HEPES, 5 g/l human serum albumin, 10 mg/l gentamicin, and phenol red), and incubated for at least 2 h at 37°C, 5% CO2.
For compound testing, sperm suspensions with 7.5 × 10^6 sperm/ml in SpermActive were treated with either DMSO (vehicle) or 10 µM test compound. For basal and induced hyperactivation conditions, DMSO or progesterone (3 µM), respectively, was added. Samples were incubated for 30 min at 37°C, 5% CO2, before motility analysis.
Motility was analyzed using a CASA system (CEROSII^TM Animal Motility, software version 1.16; Hamilton Thorne, Beverly, MA, USA), mounted on an Axiolab 5 microscope (Zeiss, Germany), equipped with a TPi-SX Thermal Plate (Tokai Hit; Shizuoka-ken, Japan) and a JAI CM-040-GE CCD camera (JAI; Tokyo, Japan). Leja slides (20 µm chamber depth; Leja Products B.V., Nieuw-Vennep, The Netherlands) were pre-warmed to 37°C, cleaned with lens paper, and loaded by capillary action with 6 µl sperm suspension; capillary correction was set to 1.3. Sperm tracks were recorded at 37°C using a 10× negative-phase objective, acquiring 60 frames at 60 Hz with 4 ms exposure and gain set to 600. For each sample and condition, 300–500 motile sperm from at least 10 non-overlapping fields were analyzed. Hyperactive sperm were identified using the SORT function with the following Boolean argument: VCL > 150 µm/s and LIN < 50% and ALH > 7 µm. For each sample and condition, the percentage of hyperactive sperm was normalized to the percentage of motile sperm, and the mean of two technical duplicates was reported.
Statistical analysis was performed using GraphPad Prism 10 for Windows (version 10.6.1). Data normality was assessed using Shapiro–Wilk test. Differences between basal and induced hyperactivation were evaluated using a paired t-test, with effective pairing confirmed across all comparisons. P < 0.05 was considered statistically significant.

CC1CCCN(C(=O)c2ccccc2C(=O)c2ccccc2)C1 (stereo not shown) [Compound 4]
IC50 (ABHD2^L33–E425 [1]): 360 nM | effect on melting temperature / thermal stability of ABHD2^L33-E425 (DSF), in words (ABHD2^L33–E425 [2]; 10 µM compound, 30 min pre-incubation): increased melting temperature | ΔTm shift for ABHD2^L33-425 determined by DSF (ABHD2^L33–E425 [2]; purified protein): 14 °C | inhibition of ABHD10 (human ABHD10): no detectable inhibition | inhibition of ABHD11 (human ABHD11): no detectable inhibition | effect on progesterone-induced hyperactivation (human sperm; 3 µM progesterone): not affected | effect on basal hyperactivation (human sperm): No statistically significant differences; also recorded: did not affect
